Laboratory results taken from the supplement of paper PMC10627819.

Columns and labels:
S. aureus DSM 20231 [1] = test: Bliss interaction score (quartile over a dose matrix) (fitness difference); higher = more antagonism (negative = synergy)
How it was run: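 Values were capped at 1 after dividing OD595 at stationary-phase entry by the plate's robust no-drug mean. This ratio is fitness, and single-drug fitness was inferred from the combination data. The Bliss score is observed minus product-expected fitness, given as quartiles over technical, biological and donor/recipient replicates.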

S. pneumoniae D39V = test: fitness (endpoint OD595 vs no drug) (fraction); higher = more growth
How it was run: (§1)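 Cultures at OD595 0.01 were dispensed into 384-well plates in TSB, LB Lennox or CY and incubated at 37 °C. Every 30 min for 14 h, OD595 was read and corrected by the first reading. Fitness is the optical density at entry into stationary phase relative to the robust mean of no-drug control wells, capped at 1.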

S. aureus DSM 20231 [2] = test: as above
How it was run: as §1

S. aureus Newman = test: as above
How it was run: as §1
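For Bliss interaction score (quartile over a dose matrix) in this document: first quartile when negative (synergy) and third quartile when positive (antagonism).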

CC(C)c1c(C(=O)Nc2ccccc2)c(-c2ccccc2)c(-c2ccc(F)cc2)n1CC[C@@H](O)C[C@@H](O)CC(=O)O [Atorvastatin] + CO/N=C(\C(=O)N[C@@H]1C(=O)N2C(C(=O)O)=C(COC(C)=O)CS[C@H]12)c1csc(N)n1 [Cefotaxime]
Details | Bliss interaction score
S. aureus DSM 20231 [1] | -0.17

CC(C)c1c(C(=O)Nc2ccccc2)c(-c2ccccc2)c(-c2ccc(F)cc2)n1CC[C@@H](O)C[C@@H](O)CC(=O)O [Atorvastatin] + CC1(C)S[C@@H]2[C@H](NC(=O)Cc3ccccc3)C(=O)N2[C@H]1C(=O)O [PenicillinG]
Details | Bliss interaction score
S. aureus DSM 20231 [1] | 0.402

COCCOC(=O)C1=C(C)NC(C)=C(C(=O)OC/C=C/c2ccccc2)C1c1cccc([N+](=O)[O-])c1 (centres undefined) [Cilnidipine] + Clc1ccc(COC(Cn2ccnc2)c2ccc(Cl)cc2Cl)c(Cl)c1 [Miconazole]
Details | Bliss interaction score
S. aureus DSM 20231 [1] | 0.105

COCCOC(=O)C1=C(C)NC(C)=C(C(=O)OC/C=C/c2ccccc2)C1c1cccc([N+](=O)[O-])c1 (centres undefined) [Cilnidipine] + CN(C)[C@@H]1C(O)=C(C(N)=O)C(=O)[C@@]2(O)C(O)=C3C(=O)c4c(O)ccc(Cl)c4[C@@](C)(O)[C@H]3C[C@@H]12 [Clortetracycline]
Details | Bliss interaction score
S. aureus DSM 20231 [1] | -0.323

COCCOC(=O)C1=C(C)NC(C)=C(C(=O)OC/C=C/c2ccccc2)C1c1cccc([N+](=O)[O-])c1 (centres undefined) [Cilnidipine] + COc1cc(Cc2cnc(N)nc2N)cc(OC)c1OC [Trimethoprim]
Details | Bliss interaction score
S. aureus DSM 20231 [1] | -0.299

CC(=O)Oc1ccccc1C(=O)O [Acetylsalicylicacid] + Cc1c(Cl)cccc1Nc1ccccc1C(=O)O [Tolfenamic]
Details | Bliss interaction score
S. aureus DSM 20231 [1] | -0.263

CC(=O)Oc1ccccc1C(=O)O [Acetylsalicylicacid] + CN(Cc1cnc2nc(N)nc(N)c2n1)c1ccc(C(=O)N[C@@H](CCC(=O)O)C(=O)O)cc1 [Methotrexate]
Details | Bliss interaction score
S. aureus DSM 20231 [1] | -0.416

Cc1cc(C(C)(C)C)c(O)c(C)c1CC1=NCCN1 [Oxymetazoline] + COc1cc(Cc2cnc(N)nc2N)cc(OC)c1OC [Trimethoprim]
Details | Bliss interaction score
S. aureus DSM 20231 [1] | 0.209

O=C(O)c1cn(C2CC2)c2cc(N3CCNCC3)c(F)cc2c1=O [Ciprofloxacin] + CCCSc1nc(N[C@@H]2C[C@H]2c2ccc(F)c(F)c2)c2nnn([C@@H]3C[C@H](OCCO)[C@@H](O)[C@H]3O)c2n1 [Ticagrelor]
Details | Bliss interaction score
S. aureus DSM 20231 [1] | -0.375

CC(=O)Oc1cccc2c1C(=O)c1c(OC(C)=O)cc(C(=O)O)cc1C2=O [Diacerein] + COc1cc(Cc2cnc(N)nc2N)cc(OC)c1OC [Trimethoprim]
Details | Bliss interaction score
S. aureus DSM 20231 [1] | -0.243

COc1cccc2c1C(=O)c1c(O)c3c(c(O)c1C2=O)C[C@@](O)(C(=O)CO)C[C@@H]3O[C@H]1C[C@H](N)[C@H](O)[C@H](C)O1 [Doxorubicin] + CO[C@@]12[C@H](COC(N)=O)C3=C(C(=O)C(C)=C(N)C3=O)N1C[C@@H]1N[C@@H]12 [Mitomycin C]
fitness
Details | first compound 0.25 µg/mL | first compound 0.5 µg/mL | first compound 0.625 µg/mL | first compound 1 µg/mL | first compound 1.25 µg/mL | first compound 2.5 µg/mL
S. aureus DSM 20231 [2], partner 0.0156 µg/mL | – | – | 0.699 | – | 0.697 | 0.668
S. aureus DSM 20231 [2], partner 0.0312 µg/mL | – | – | 0.659 | – | 0.641 | 0.61
S. aureus DSM 20231 [2], partner 0.0625 µg/mL | – | – | 0.52 | – | 0.496 | 0.473
S. aureus Newman, partner 0.0156 µg/mL | – | – | 0.669 | – | 0.692 | 0.672
S. aureus Newman, partner 0.0312 µg/mL | – | – | 0.63 | – | 0.699 | 0.599
S. aureus Newman, partner 0.0625 µg/mL | – | – | 0.531 | – | 0.507 | 0.408
S. pneumoniae D39V, partner 0.001075 µg/mL | 0.834 | 0.842 | – | 0.81 | – | –
S. pneumoniae D39V, partner 0.002 µg/mL | 0.836 | 0.822 | – | 0.696 | – | –
S. pneumoniae D39V, partner 0.00215 µg/mL | 0.838 | 0.848 | – | 0.783 | – | –
S. pneumoniae D39V, partner 0.004 µg/mL | 0.707 | 0.664 | – | 0.632 | – | –
S. pneumoniae D39V, partner 0.0043 µg/mL | 0.681 | 0.671 | – | 0.58 | – | –
S. pneumoniae D39V, partner 0.008 µg/mL | 0.458 | 0.435 | – | 0.404 | – | –

CO/N=C(\C(=O)N[C@@H]1C(=O)N2C(C(=O)O)=C(COC(C)=O)CS[C@H]12)c1csc(N)n1 [Cefotaxime] + CO/N=C(\C(=O)N[C@@H]1C(=O)N2C(C(=O)[O-])=C(C[N+]3(C)CCCC3)CS[C@H]12)c1csc(N)n1 [Cefepime]
Details | fitness
S. aureus DSM 20231 [2], first compound 0.039 µg/mL, partner 0.125 µg/mL | 0.782
S. aureus DSM 20231 [2], first compound 0.039 µg/mL, partner 0.25 µg/mL | 0.847
S. aureus DSM 20231 [2], first compound 0.039 µg/mL, partner 0.5 µg/mL | 0.824
S. aureus DSM 20231 [2], first compound 0.078 µg/mL, partner 0.125 µg/mL | 0.754
S. aureus DSM 20231 [2], first compound 0.078 µg/mL, partner 0.25 µg/mL | 0.8
S. aureus DSM 20231 [2], first compound 0.078 µg/mL, partner 0.5 µg/mL | 0.772
S. aureus DSM 20231 [2], first compound 0.156 µg/mL, partner 0.125 µg/mL | 0.686
S. aureus DSM 20231 [2], first compound 0.156 µg/mL, partner 0.25 µg/mL | 0.73
S. aureus DSM 20231 [2], first compound 0.156 µg/mL, partner 0.5 µg/mL | 0.753
S. aureus DSM 20231 [2], first compound 0.312 µg/mL, partner 0.125 µg/mL | 0.664
S. aureus DSM 20231 [2], first compound 0.312 µg/mL, partner 0.25 µg/mL | 0.661
S. aureus DSM 20231 [2], first compound 0.312 µg/mL, partner 0.5 µg/mL | 0.71
S. aureus Newman, first compound 0.078 µg/mL, partner 0.125 µg/mL | 0.75
S. aureus Newman, first compound 0.078 µg/mL, partner 0.25 µg/mL | 0.695
S. aureus Newman, first compound 0.078 µg/mL, partner 0.5 µg/mL | 0.696
S. aureus Newman, first compound 0.156 µg/mL, partner 0.125 µg/mL | 0.618
S. aureus Newman, first compound 0.156 µg/mL, partner 0.25 µg/mL | 0.577
S. aureus Newman, first compound 0.156 µg/mL, partner 0.5 µg/mL | 0.519
S. aureus Newman, first compound 0.312 µg/mL, partner 0.125 µg/mL | 0.469
S. aureus Newman, first compound 0.312 µg/mL, partner 0.25 µg/mL | 0.415
S. aureus Newman, first compound 0.312 µg/mL, partner 0.5 µg/mL | 0.36
S. aureus Newman, first compound 0.625 µg/mL, partner 0.125 µg/mL | 0.206
S. aureus Newman, first compound 0.625 µg/mL, partner 0.25 µg/mL | 0.178
S. aureus Newman, first compound 0.625 µg/mL, partner 0.5 µg/mL | 0.0892
S. aureus Newman, first compound 1.25 µg/mL, partner 0.125 µg/mL | 0.125
S. aureus Newman, first compound 1.25 µg/mL, partner 0.25 µg/mL | 0.0934
S. aureus Newman, first compound 1.25 µg/mL, partner 0.5 µg/mL | 0.049
S. aureus Newman, first compound 2.5 µg/mL, partner 0.125 µg/mL | 0.0454
S. aureus Newman, first compound 2.5 µg/mL, partner 0.25 µg/mL | 0.0501
S. aureus Newman, first compound 2.5 µg/mL, partner 0.5 µg/mL | 0.0407
S. pneumoniae D39V, first compound 0.0018 µg/mL, partner 0.007 µg/mL | ≥ 1
S. pneumoniae D39V, first compound 0.0018 µg/mL, partner 0.0078 µg/mL | ≥ 1
S. pneumoniae D39V, first compound 0.0018 µg/mL, partner 0.014 µg/mL | ≥ 1
S. pneumoniae D39V, first compound 0.0018 µg/mL, partner 0.0155 µg/mL | ≥ 1
S. pneumoniae D39V, first compound 0.0018 µg/mL, partner 0.028 µg/mL | 0.93
S. pneumoniae D39V, first compound 0.0018 µg/mL, partner 0.031 µg/mL | 0.926
S. pneumoniae D39V, first compound 0.0035 µg/mL, partner 0.007 µg/mL | 0.983
S. pneumoniae D39V, first compound 0.0035 µg/mL, partner 0.0078 µg/mL | 0.998
S. pneumoniae D39V, first compound 0.0035 µg/mL, partner 0.014 µg/mL | 0.994
S. pneumoniae D39V, first compound 0.0035 µg/mL, partner 0.0155 µg/mL | 0.996
S. pneumoniae D39V, first compound 0.0035 µg/mL, partner 0.028 µg/mL | 0.8
S. pneumoniae D39V, first compound 0.0035 µg/mL, partner 0.031 µg/mL | 0.89
S. pneumoniae D39V, first compound 0.007 µg/mL, partner 0.007 µg/mL | 0.94
S. pneumoniae D39V, first compound 0.007 µg/mL, partner 0.0078 µg/mL | 0.921
S. pneumoniae D39V, first compound 0.007 µg/mL, partner 0.014 µg/mL | 0.96
S. pneumoniae D39V, first compound 0.007 µg/mL, partner 0.0155 µg/mL | 0.891
S. pneumoniae D39V, first compound 0.007 µg/mL, partner 0.028 µg/mL | 0.629
S. pneumoniae D39V, first compound 0.007 µg/mL, partner 0.031 µg/mL | 0.553
